Experimental data published in patent US10004701B2, “Methods and compositions for treating infection” (UNIVERSITY OF ROCHESTER, priority 2012, dated 2018).
Where a name gives a salt, the structure may show the parent alone. Read-outs that look alike come from different tables or passages of the source.

Assays:
Test in all cases: AK assay 384-well format, Prestwick library screening
E. faecium = type: cell-based, Enterococcus faecium; settings: 50 μM final drug concentration; for fold induction at 50 µM: Enterococcus faecium, 3 h
[1] = system: S. aureus strain USA300-0114; type: cell-based, Staphylococcus aureus; settings: 50 μM final drug concentration; for fold induction at 50 µM: Staphylococcus aureus, USA300, 3 h
K. pneumoniae = type: cell-based, Klebsiella pneumoniae; settings: 50 μM final drug concentration; for fold induction at 50 µM: Klebsiella pneumoniae, 3 h
[2] = system: A. baumannii strain 98-37-09; type: cell-based, Acinetobacter baumannii; settings: 50 μM final drug concentration; for fold induction at 50 µM: Acinetobacter baumannii, 983709, 3 h
P. aeruginosa = type: cell-based, Pseudomonas aeruginosa; settings: 50 μM final drug concentration; for fold induction at 50 µM: Pseudomonas aeruginosa, 3 h
E. cloacae = type: cell-based, Enterobacter cloacae; settings: 50 μM final drug concentration; for fold induction at 50 µM: Enterobacter cloacae, 3 h
E. coli = type: cell-based, Escherichia coli; settings: 50 μM final drug concentration; for fold induction at 50 µM: Escherichia coli, 3 h

SMILES: COC(=O)[C@H]1[C@H]2C[C@@H]3c4[nH]c5cc(OC)ccc5c4CCN3C[C@H]2C[C@@H](OC(=O)/C=C/c2cc(OC)c(OC)c(OC)c2)[C@@H]1OC [Rescinnamin]
- AK-based Prestwick Library Screening Results, E. faecium (increase in extracellular AK activity) (E. faecium; planktonic E. faecium, cutoff for positive-scoring molecules 3-fold increase): 1.0
- AK-based Prestwick Library Screening Results, S. aureus (increase in extracellular AK activity) ([1]; planktonic S. aureus, cutoff for positive-scoring molecules 3-fold increase): 0.3
- AK-based Prestwick Library Screening Results, K. pneumoniae (increase in extracellular AK activity) (K. pneumoniae; planktonic K. pneumoniae, cutoff for positive-scoring molecules 3-fold increase): 0.6
- AK-based Prestwick Library Screening Results, A. baumannii (increase in extracellular AK activity) ([2]; planktonic A. baumannii, cutoff for positive-scoring molecules 3-fold increase): 1.1
- AK-based Prestwick Library Screening Results, P. aeruginosa (increase in extracellular AK activity) (P. aeruginosa; planktonic P. aeruginosa, cutoff for positive-scoring molecules 3-fold increase): 0.4
- AK-based Prestwick Library Screening Results, E. cloacae (increase in extracellular AK activity) (E. cloacae; planktonic E. cloacae, cutoff for positive-scoring molecules 3-fold increase): 0.6
- AK-based Prestwick Library Screening Results, E. coli (increase in extracellular AK activity) (E. coli; planktonic E. coli, cutoff for positive-scoring molecules 3-fold increase): 0.7

SMILES: COC(=O)[C@H]1[C@H]2C[C@@H]3c4[nH]c5cc(OC)ccc5c4CCN3C[C@H]2C[C@@H](OC(=O)c2cc(OC)c(OC)c(OC)c2)[C@@H]1OC [Reserpine]
- fold induction at 50 µM (E. faecium; cutoff for positive-scoring molecules 3-fold increase, read-out: AK-based Prestwick Library Screening Results, E. faecium (fold increase in extracellular AK activity)): 1.1
- fold induction at 50 µM ([1]; cutoff for positive-scoring molecules 3-fold increase, read-out: AK-based Prestwick Library Screening Results, S. aureus (fold increase in extracellular AK activity)): 1.3
- fold induction at 50 µM (K. pneumoniae; cutoff for positive-scoring molecules 3-fold increase, read-out: AK-based Prestwick Library Screening Results, K. pneumoniae (fold increase in extracellular AK activity)): 1.2
- fold induction at 50 µM ([2]; cutoff for positive-scoring molecules 3-fold increase, read-out: AK-based Prestwick Library Screening Results, A. baumannii (fold increase in extracellular AK activity)): 1.5
- fold induction at 50 µM (P. aeruginosa; cutoff for positive-scoring molecules 3-fold increase, read-out: AK-based Prestwick Library Screening Results, P. aeruginosa (fold increase in extracellular AK activity)): 1.4
- fold induction at 50 µM (E. cloacae; cutoff for positive-scoring molecules 3-fold increase, read-out: AK-based Prestwick Library Screening Results, E. cloacae (fold increase in extracellular AK activity)): 1.5
- fold induction at 50 µM (E. coli; cutoff for positive-scoring molecules 3-fold increase, read-out: AK-based Prestwick Library Screening Results, E. coli (fold increase in extracellular AK activity)): 1.3

SMILES: COc1ccc2c3c([nH]c2c1)[C@H]1C[C@H]2[C@H](C[C@@H](O)[C@H](OC)[C@H]2C(=O)O)CN1CC3.Cl [Reserpinic acid hydrochloride]
- AK-based Prestwick library screening result, E. faecium (fold increase in extracellular AK activity) (E. faecium; planktonic E. faecium, positive cutoff 3-fold increase): 0.9
- AK-based Prestwick library screening result, S. aureus (fold increase in extracellular AK activity) ([1]; planktonic S. aureus, positive cutoff 3-fold increase): 0.6
- AK-based Prestwick library screening result, K. pneumoniae (fold increase in extracellular AK activity) (K. pneumoniae; planktonic K. pneumoniae, positive cutoff 3-fold increase): 0.7
- AK-based Prestwick library screening result, A. baumannii (fold increase in extracellular AK activity) ([2]; planktonic A. baumannii, positive cutoff 3-fold increase): 0.8
- AK-based Prestwick library screening result, P. aeruginosa (fold increase in extracellular AK activity) (P. aeruginosa; planktonic P. aeruginosa, positive cutoff 3-fold increase): 0.8
- AK-based Prestwick library screening result, E. cloacae (fold increase in extracellular AK activity) (E. cloacae; planktonic E. cloacae, positive cutoff 3-fold increase): 1.0
- AK-based Prestwick library screening result, E. coli (fold increase in extracellular AK activity) (E. coli; planktonic E. coli, […]): 0.9

SMILES: CC1=C(/C=C/C(C)=C/C=C/C(C)=C/C(=O)O)C(C)(C)CCC1 [Retinoic acid]
- fold induction at 50 µM (E. faecium; 384-well format, cutoff for positive-scoring molecules 3-fold increase, read-out: AK-based Prestwick Library Screening Results, E. faecium (increase in extracellular AK activity)): 1
- fold induction at 50 µM ([1]; 384-well format, cutoff for positive-scoring molecules 3-fold increase, read-out: AK-based Prestwick Library Screening Results, S. aureus (increase in extracellular AK activity)): 0.8
- fold induction at 50 µM (K. pneumoniae; 384-well format, cutoff for positive-scoring molecules 3-fold increase, read-out: AK-based Prestwick Library Screening Results, K. pneumoniae (increase in extracellular AK activity)): 0.6
- fold induction at 50 µM ([2]; 384-well format, cutoff for positive-scoring molecules 3-fold increase, read-out: AK-based Prestwick Library Screening Results, A. baumannii (increase in extracellular AK activity)): 0.8
- fold induction at 50 µM (P. aeruginosa; 384-well format, cutoff for positive-scoring molecules 3-fold increase, read-out: AK-based Prestwick Library Screening Results, P. aeruginosa (increase in extracellular AK activity)): 0.7
- fold induction at 50 µM (E. cloacae; 384-well format, cutoff for positive-scoring molecules 3-fold increase, read-out: AK-based Prestwick Library Screening Results, E. cloacae (increase in extracellular AK activity)): 0.9
- fold induction at 50 µM (E. coli; 384-well format, cutoff for positive-scoring molecules 3-fold increase, read-out: AK-based Prestwick Library Screening Results, E. coli (increase in extracellular AK activity)): 0.7

SMILES: NC(=O)c1ncn([C@@H]2O[C@H](CO)[C@@H](O)[C@H]2O)n1 [Ribavirin]
- fold induction at 50 µM (E. faecium; planktonic E. faecium, positive cutoff 3-fold increase, read-out: AK-based Prestwick library screening result, E. faecium (fold increase in extracellular AK activity)): 0.9
- fold induction at 50 µM ([1]; planktonic S. aureus, positive cutoff 3-fold increase, read-out: AK-based Prestwick library screening result, S. aureus (fold increase in extracellular AK activity)): 0.7
- fold induction at 50 µM (K. pneumoniae; planktonic K. pneumoniae, positive cutoff 3-fold increase, read-out: AK-based Prestwick library screening result, K. pneumoniae (fold increase in extracellular AK activity)): 0.7
- fold induction at 50 µM ([2]; planktonic A. baumannii, positive cutoff 3-fold increase, read-out: AK-based Prestwick library screening result, A. baumannii (fold increase in extracellular AK activity)): 0.9
- fold induction at 50 µM (P. aeruginosa; planktonic P. aeruginosa, positive cutoff 3-fold increase, read-out: AK-based Prestwick library screening result, P. aeruginosa (fold increase in extracellular AK activity)): 1.1
- fold induction at 50 µM (E. cloacae; planktonic E. cloacae, positive cutoff 3-fold increase, read-out: AK-based Prestwick library screening result, E. cloacae (fold increase in extracellular AK activity)): 1.2
- fold induction at 50 µM (E. coli; planktonic E. coli, positive cutoff 3-fold increase, read-out: AK-based Prestwick library screening result, E. coli (fold increase in extracellular AK activity)): 0.8

SMILES: Cc1cc2nc3c(=O)[nH]c(=O)nc-3n(C[C@H](O)[C@H](O)[C@H](O)CO)c2cc1C [Riboflavine]
- fold induction at 50 µM (E. faecium; planktonic, cutoff for positive 3-fold increase, read-out: AK-based Prestwick Library Screening Results, E. faecium (fold increase in extracellular AK activity)): 1
- fold induction at 50 µM ([1]; planktonic, cutoff for positive 3-fold increase, read-out: AK-based Prestwick Library Screening Results, S. aureus (fold increase in extracellular AK activity)): 0.9
- fold induction at 50 µM (K. pneumoniae; planktonic, cutoff for positive 3-fold increase, read-out: AK-based Prestwick Library Screening Results, K. pneumoniae (fold increase in extracellular AK activity)): 1.6
- fold induction at 50 µM ([2]; planktonic, cutoff for positive 3-fold increase, read-out: AK-based Prestwick Library Screening Results, A. baumannii (fold increase in extracellular AK activity)): 1.2
- fold induction at 50 µM (P. aeruginosa; planktonic, cutoff for positive 3-fold increase, read-out: AK-based Prestwick Library Screening Results, P. aeruginosa (fold increase in extracellular AK activity)): 1.2
- fold induction at 50 µM (E. cloacae; planktonic, cutoff for positive 3-fold increase, read-out: AK-based Prestwick Library Screening Results, E. cloacae (fold increase in extracellular AK activity)): 1.5
- fold induction at 50 µM (E. coli; planktonic, cutoff for positive 3-fold increase, read-out: AK-based Prestwick Library Screening Results, E. coli (fold increase in extracellular AK activity)): 1.1

SMILES: NC[C@H]1O[C@H](O[C@H]2[C@H](O[C@@H]3O[C@H](CO)[C@@H](O)[C@H]3O)[C@@H](O)[C@H](N)C[C@@H]2N)[C@H](N)[C@@H](O)[C@@H]1O [Ribostamycin sulfate salt]
- fold induction at 50 µM (E. faecium; planktonic, cutoff for positive-scoring molecules 3-fold increase, read-out: AK-based Prestwick Library Screening Results, E. faecium (fold increase in extracellular AK activity)): 0.9
- fold induction at 50 µM ([1]; planktonic, cutoff for positive-scoring molecules 3-fold increase, read-out: AK-based Prestwick Library Screening Results, S. aureus (fold increase in extracellular AK activity)): 0.8
- fold induction at 50 µM (K. pneumoniae; planktonic, cutoff for positive-scoring molecules 3-fold increase, read-out: AK-based Prestwick Library Screening Results, K. pneumoniae (fold increase in extracellular AK activity)): 0.7
- fold induction at 50 µM ([2]; planktonic, cutoff for positive-scoring molecules 3-fold increase, read-out: AK-based Prestwick Library Screening Results, A. baumannii (fold increase in extracellular AK activity)): 0.8
- fold induction at 50 µM (P. aeruginosa; planktonic, cutoff for positive-scoring molecules 3-fold increase, read-out: AK-based Prestwick Library Screening Results, P. aeruginosa (fold increase in extracellular AK activity)): 0.8
- fold induction at 50 µM (E. cloacae; planktonic, cutoff for positive-scoring molecules 3-fold increase, read-out: AK-based Prestwick Library Screening Results, E. cloacae (fold increase in extracellular AK activity)): 1.2
- fold induction at 50 µM (E. coli; planktonic, cutoff for positive-scoring molecules 3-fold increase, read-out: AK-based Prestwick Library Screening Results, E. coli (fold increase in extracellular AK activity)): 0.9

SMILES: COc1ccn(C)c(=O)c1C#N [Ricinine]
- fold induction at 50 µM (E. faecium; planktonic, […], read-out: AK-based Prestwick Library Screening Results, E. faecium (fold increase in extracellular AK activity)): 0.9
- fold induction at 50 µM ([1]; planktonic, […], read-out: AK-based Prestwick Library Screening Results, S. aureus (fold increase in extracellular AK activity)): 0.9
- fold induction at 50 µM (K. pneumoniae; planktonic, […], read-out: AK-based Prestwick Library Screening Results, K. pneumoniae (fold increase in extracellular AK activity)): 0.8
- fold induction at 50 µM ([2]; planktonic, […], read-out: AK-based Prestwick Library Screening Results, A. baumannii (fold increase in extracellular AK activity)): 0.8
- fold induction at 50 µM (P. aeruginosa; planktonic, […], read-out: AK-based Prestwick Library Screening Results, P. aeruginosa (fold increase in extracellular AK activity)): 0.7
- fold induction at 50 µM (E. cloacae; planktonic, […], read-out: AK-based Prestwick Library Screening Results, E. cloacae (fold increase in extracellular AK activity)): 1.3
- fold induction at 50 µM (E. coli; planktonic, […], read-out: AK-based Prestwick Library Screening Results, E. coli (fold increase in extracellular AK activity)): 0.8
